# Experimental data taken from ChEMBL document CHEMBL2069272, “Leishmanicidal activities and cytotoxicities of bisnaphthoquinone analogues and naphthol derivatives from Burman Diospyros burmanica” (Bioorg Med Chem, 2012).
# pIC50: −log10 of the molar value. Residues, ends and D or L forms follow the SMILES beside them. *: point of attachment. Cbz = O=C(OCc1ccccc1)*
# What was measured:
# [1] = Toxicity against mouse RAW264.7 cells by XTT assay; type: cell-based
# Leishmania major = test: Antileishmanial activity against Leishmania major promastigotes incubated for 48 hrs by MTT assay; type: functional, organism-based
# [2] = Selectivity index, ratio of IC50 for mouse RAW264.7 cells to IC50 for Leishmania major promastigotes; type: toxicity, cell-based; details: RAW264.7 cells versus Leishmania major promastigotes, read-out: Ratio IC50
smiles,measurement,setting,value
COc1c(O)ccc2c1C(=O)C(C)=CC2=O,pIC50,[1],4.02
same,pIC50,Leishmania major,4.03
same,selectivity ratio,[2],1.03
COc1c(C)cc(O)c2c(OC)cccc12,pIC50,[1],< 4.00
same,pIC50,Leishmania major,< 4.00
COc1cccc2c1C(=O)C(O)=C(C)C2=O,pIC50,[1],< 4.00
same,pIC50,Leishmania major,< 4.00
COc1cccc2cc(C=O)cc(O)c12,pIC50,[1],< 4.00
same,pIC50,Leishmania major,< 4.00
COc1cc(C)cc2c1C(=O)C=C(c1c(C)c(OC)c3ccc(O)c(OC)c3c1O)C2=O [BURMANIN C],pIC50,[1],4.66
same,pIC50,Leishmania major,6.82
same,selectivity ratio,[2],147
COc1cccc2c1C(=O)C=C(C)C2=O,pIC50,[1],4.35
same,pIC50,Leishmania major,5.48
same,selectivity ratio,[2],13.6
C[C@@H]1[C@H](O)[C@@H](C)/C=C/C=C/C=C/C=C/C=C/C=C/C=C/[C@H](O[C@@H]2O[C@H](C)[C@@H](O)[C@H](N)[C@@H]2O)C[C@@H]2O[C@](O)(C[C@@H](O)C[C@@H](O)[C@H](O)CC[C@@H](O)C[C@@H](O)CC(=O)O[C@H]1C)C[C@H](O)[C@H]2C(=O)O [AMPHOTERICIN B],pIC50,Leishmania major,7.46
COc1cc(C)cc2c1C(=O)C=C(C1=C(C)C(=O)c3ccc(O)c(OC)c3C1=O)C2=O [BURMANIN A],pIC50,[1],4.62
same,pIC50,Leishmania major,7.28
same,selectivity ratio,[2],453
COc1c(C)cc2cccc(OC)c2c1O,pIC50,[1],< 4.00
same,pIC50,Leishmania major,4.35
same,selectivity ratio,[2],> 2.22
COc1ccc(OC)c2c1C(=O)C=C(C)C2=O,pIC50,[1],< 4.00
COc1cc(C)cc2c1C(=O)C=C(c1c(C)cc3ccc(O)c(OC)c3c1O)C2=O [BURMANIN B],pIC50,[1],4.51
same,pIC50,Leishmania major,6.74
same,selectivity ratio,[2],172
COc1cccc2cc(C)cc(O)c12,pIC50,[1],< 4.00
same,pIC50,Leishmania major,4.30
same,selectivity ratio,[2],> 2
CC(C)C[C@@H](C=O)NC(=O)[C@H](CC(C)C)NC(=O)[C@H](CC(C)C)NC(=O)OCc1ccccc1 [MG-132] (Cbz-Leu-Leu-Leu-aldehyde),pIC50,[1],6.20
COc1ccc(OC)c2c(O)cc(C)cc12,pIC50,[1],< 4.00
same,pIC50,Leishmania major,4.42
same,selectivity ratio,[2],> 2.63
